# Activity calls are given as the source filed them. The calls are words filed in the database; no cut-off is given here.
# Experiments:
# [1] = molecular target: T1, Nuclear receptor subfamily 1 group I member 2 (Homo sapiens, UniProt O75469); experiment: Displacement of BODIPY FL vindoline from GST-tagged human PXR LBD incubated for 60 mins by TR-FRET assay
# T1 sequence (O75469 whole entry): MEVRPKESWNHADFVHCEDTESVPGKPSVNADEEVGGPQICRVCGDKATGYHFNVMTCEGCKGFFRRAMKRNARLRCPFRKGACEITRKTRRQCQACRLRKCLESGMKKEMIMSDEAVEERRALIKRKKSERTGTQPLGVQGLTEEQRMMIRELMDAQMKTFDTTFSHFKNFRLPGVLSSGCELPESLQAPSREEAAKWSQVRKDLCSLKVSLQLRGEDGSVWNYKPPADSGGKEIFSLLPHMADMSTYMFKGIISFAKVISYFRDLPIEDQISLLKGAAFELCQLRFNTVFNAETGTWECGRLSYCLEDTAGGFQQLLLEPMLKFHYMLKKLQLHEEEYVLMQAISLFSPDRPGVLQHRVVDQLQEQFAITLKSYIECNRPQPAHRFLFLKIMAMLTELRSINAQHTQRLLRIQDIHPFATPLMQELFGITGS
# PXR (NR1I2) [2] = molecular target: T2, PXR (NR1I2) (Homo sapiens, UniProt O75469); experiment: Displacement of BODIPY FL vindoline from GST-tagged human PXR LBD at 10 uM incubated for 60 mins by TR-FRET assay relative to control; settings: GST-tagged human PXR LBD (recombinant protein), probe BODIPY FL vindoline
# T2 sequence (O75469 whole entry): T1 sequence (O75469 whole entry)
# [3] = molecular target: T1, Nuclear receptor subfamily 1 group I member 2; experiment: Agonist activity at human PXR expressed in HepG2 cells co-expressing luciferase gene under control of CYP3A4 promoter incubated for 24 hrs by luciferase reporter assay
# PXR (NR1I2) [4] = molecular target: T2, PXR (NR1I2); experiment: Agonist activity at human PXR expressed in HepG2 cells co-expressing luciferase gene under control of CYP3A4 promoter at 10 uM incubated for 24 hrs by luciferase reporter assay relative to control
# [5] = molecular target: T1, Nuclear receptor subfamily 1 group I member 2; experiment: Antagonist activity at human PXR expressed in HepG2 cells co-expressing luciferase gene under control of CYP3A4 promoter incubated for 24 hrs in presence of 5 uM rifampicin by luciferase reporter assay
# PXR (NR1I2) [6] = molecular target: T2, PXR (NR1I2); experiment: Inhibition of human PXR expressed in HepG2 cells co-expressing luciferase gene under control of CYP3A4 promoter at 10 uM incubated for 24 hrs in presence of 5 uM rifampicin by luciferase reporter assay relative to control; assay type: cell-based
# HepG2 = experiment: Cytotoxicity against human HepG2 cells co-expressing luciferase gene under control of CYP3A4 promoter measured after 24 hrs by CellTiter-Glo luminescent cell viability assay; assay type: ADME, cell-based; settings: for Activity: human, hepg2, 24 h, time 24 hrs
# [7] = molecular target: T3, Nuclear receptor subfamily 1 group I member 2 (Mus musculus, UniProt O54915); experiment: Antagonist activity at mouse PXR in presence of PCN by luciferase reporter assay
# T3 sequence (O54915 whole entry): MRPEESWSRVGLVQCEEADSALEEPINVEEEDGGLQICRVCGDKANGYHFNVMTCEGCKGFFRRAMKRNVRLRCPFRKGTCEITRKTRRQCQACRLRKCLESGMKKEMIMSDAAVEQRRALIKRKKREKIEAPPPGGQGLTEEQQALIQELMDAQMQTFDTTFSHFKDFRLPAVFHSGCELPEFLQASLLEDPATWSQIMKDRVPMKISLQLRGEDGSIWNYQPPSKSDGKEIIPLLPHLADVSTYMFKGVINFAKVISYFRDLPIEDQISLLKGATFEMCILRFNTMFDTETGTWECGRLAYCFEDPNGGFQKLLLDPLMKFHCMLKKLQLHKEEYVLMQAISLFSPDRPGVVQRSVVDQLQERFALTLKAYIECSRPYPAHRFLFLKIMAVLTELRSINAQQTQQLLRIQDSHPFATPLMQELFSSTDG
# [8] = molecular target: T3, Nuclear receptor subfamily 1 group I member 2; experiment: Agonist activity at mouse PXR by luciferase reporter assay; assay type: ADME
# [9] = molecular target: T4, Vitamin D3 receptor (Homo sapiens) (UniProt P11473); experiment: Agonist activity at human VDR expressed in HEK293T cells by luciferase reporter assay; assay type: cell-based
# T4 sequence (whole entry): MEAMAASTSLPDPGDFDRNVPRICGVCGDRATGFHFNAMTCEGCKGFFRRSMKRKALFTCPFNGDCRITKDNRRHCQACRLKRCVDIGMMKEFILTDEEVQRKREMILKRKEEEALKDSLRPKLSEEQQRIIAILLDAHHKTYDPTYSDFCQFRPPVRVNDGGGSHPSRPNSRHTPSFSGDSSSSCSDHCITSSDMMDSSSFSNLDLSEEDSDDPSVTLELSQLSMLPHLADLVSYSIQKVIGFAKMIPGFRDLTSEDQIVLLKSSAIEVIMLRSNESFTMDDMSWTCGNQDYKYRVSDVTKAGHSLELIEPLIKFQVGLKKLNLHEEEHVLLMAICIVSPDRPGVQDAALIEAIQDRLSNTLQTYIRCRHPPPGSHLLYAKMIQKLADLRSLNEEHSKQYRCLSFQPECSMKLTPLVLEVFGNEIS
# [10] = molecular target: T4, Vitamin D3 receptor (Homo sapiens); experiment: Antagonist activity at human VDR expressed in HEK293T cells in presence of 1alpha,25-dihydroxyvitamin D3 by luciferase reporter assay; assay type: cell-based
# [11] = molecular target: T5, Bile acid receptor (Homo sapiens) (UniProt Q96RI1); experiment: Agonist activity at human FXR expressed in HEK293T cells by luciferase reporter assay; assay type: cell-based
# T5 sequence (whole entry): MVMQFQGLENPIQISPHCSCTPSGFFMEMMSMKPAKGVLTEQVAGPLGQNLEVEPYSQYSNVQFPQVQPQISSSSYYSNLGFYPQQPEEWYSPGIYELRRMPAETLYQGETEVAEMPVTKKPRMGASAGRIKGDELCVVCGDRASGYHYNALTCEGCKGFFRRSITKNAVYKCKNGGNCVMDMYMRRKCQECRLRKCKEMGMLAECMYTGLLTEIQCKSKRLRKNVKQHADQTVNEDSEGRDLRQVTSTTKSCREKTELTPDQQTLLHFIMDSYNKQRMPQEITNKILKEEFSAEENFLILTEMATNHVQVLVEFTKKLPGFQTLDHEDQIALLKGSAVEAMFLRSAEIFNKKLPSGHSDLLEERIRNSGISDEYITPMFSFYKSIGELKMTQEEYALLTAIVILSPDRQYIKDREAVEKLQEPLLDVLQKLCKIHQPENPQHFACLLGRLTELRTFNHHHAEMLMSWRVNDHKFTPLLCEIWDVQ
# [12] = molecular target: T5, Bile acid receptor (Homo sapiens); experiment: Antagonist activity at human FXR expressed in HEK293T cells in presence of GW4064 by luciferase reporter assay; assay type: cell-based
# [13] = test system: constitutive androstane receptor, NR1I3 (Homo sapiens); experiment: Agonist activity at human CAR by luciferase reporter assay
IC50 [1],"inhibition at 1 h, 10 µM (PXR (NR1I2) [2])",EC50 [3],"activity at 24 h, 10 µM (PXR (NR1I2) [4])",IC50 [5],"inhibition at 24 h, 10 µM (PXR (NR1I2) [6])",Activity [7],Activity [8],Activity [9],Activity [10],Activity [11],Activity [12],Activity [13],Compound,"IC50 (HepG2; Homo sapiens, HepG2, 24 h)",Activity (HepG2)
700 nM,35%,1900 nM,62%,10000 nM,51%,,,,,,,,COC(=O)c1cc(OC)c(-n2nnc(S(=O)(=O)c3ccc(C(C)(C)C)cc3)c2C)cc1Cl,,
180 nM,85%,430 nM,53%,1700 nM,52%,,,,,,,,COc1ccc(OC)c(-n2nnc(S(=O)(=O)c3ccc(C(C)(C)C)cc3)c2N)c1,,
300 nM,97%,260 nM,88%,2400 nM,38%,,,,,,,,COc1ccc(OC)c(-n2nnc(S(=O)(=O)c3ccc(C(C)(C)C)cc3)c2C#N)c1,,
1500 nM,64%,1600 nM,75%,6000 nM,32%,,,,,,,,COC(=O)c1cc(OC)c(-n2nnc(S(=O)(=O)c3ccc(C(C)(C)C)cc3)c2C)cc1C,,
1400 nM,98%,1400 nM,35%,3400 nM,71%,,,,,,,,COc1ccc(OC)c(-n2cc(S(=O)(=O)c3ccc(C(C)(C)C)cc3)nn2)c1,,
600 nM,40%,1000 nM,49%,3400 nM,44%,,,,,,,,COc1cc(C#N)c(Cl)cc1-n1nnc(S(=O)(=O)c2ccc(C(C)(C)C)cc2)c1C,,
1400 nM,80%,400 nM,77%,9000 nM,111%,,,,,,,,COc1cc(C(C)=O)c(C)cc1-n1nnc(S(=O)(=O)c2ccc(C(C)(C)C)cc2)c1C,16500 nM,
500 nM,98%,600 nM,69%,5000 nM,44%,,,,,,,,COc1ccc(C)cc1-n1cc(S(=O)(=O)c2ccc(C(C)(C)C)cc2)nn1,,
700 nM,71%,800 nM,51%,2000 nM,57%,,,,,,,,COc1cc(Cl)c(C)cc1-n1nnc(S(=O)(=O)c2ccc(C(C)(C)C)cc2)c1C,,
1400 nM,95%,810 nM,82%,2000 nM,64%,,,,,,,,COc1ccc(CO)cc1-n1nnc(S(=O)(=O)c2ccc(C(C)(C)C)cc2)c1C,,
1200 nM,87%,1000 nM,33%,2300 nM,64%,,,,,,,,COc1cc(C)c(Cl)cc1-n1nnc(S(=O)(=O)c2ccc(C(C)(C)C)cc2)c1C,,
61 nM,90%,80 nM,105%,,,Not Active,Not Active,inactive,inactive,inactive,inactive,inactive,COc1ccc(Cl)cc1-n1nnc(S(=O)(=O)c2ccc(C(C)(C)C)cc2)c1C#N,,Non-Toxic
280 nM,88%,160 nM,73%,3300 nM,46%,,,,,,,,COc1ccc(C)cc1-n1nnc(S(=O)(=O)c2ccc(C(C)(C)C)cc2)c1N,,
500 nM,93%,110 nM,42%,4400 nM,78%,,,,,,,,COc1ccc(Cl)cc1-n1nnc(S(=O)(=O)c2ccc(C(C)(C)C)cc2)c1N,,
400 nM,80%,240 nM,37%,700 nM,70%,Not Active,,inactive,inactive,inactive,inactive,inactive,COc1ccc(F)cc1-n1nnc(S(=O)(=O)c2ccc(C(C)(C)C)cc2)c1C,,Non-Toxic
4000 nM,87%,1000 nM,24%,2000 nM,72%,,,,,,,,COc1cc(-n2nnc(S(=O)(=O)c3ccc(C(C)(C)C)cc3)c2C)c(OC)cc1F,,
1070 nM,48%,1600 nM,58%,4000 nM,33%,,,,,,,,COc1cc(C#N)c(C)cc1-n1nnc(S(=O)(=O)c2ccc(C(C)(C)C)cc2)c1C,,
,,,,,,Not Active,Not Active,,,,,inactive,CCc1c(S(=O)(=O)c2ccc(C(C)(C)C)cc2)nnn1-c1cc(OC)ccc1OC,,Non-Toxic

# Reference: ChEMBL document CHEMBL4834393, “Building a Chemical Toolbox for Human Pregnane X Receptor Research: Discovery of Agonists, Inverse Agonists, and Antagonists Among Analogs Based on the Unique Chemical Scaffold of SPA70” (J Med Chem, 2021)
